The subject of one data set is PC-12 cells. Put plainly: 6-OHDA neurotoxicity in PC-12 cells, MTT cell viability assay. In kind it is cell-based. The protocol:
The neurotoxicity was test by PC-12 cells which were rat pheochromocytoma cell line. The cells were supplied by the Bioresource Collection and Research Center, Food Industry Research and Development Institute, Hsinchu, Taiwan, and maintained in RPMI 1640 supplemented with 10% HBS, 5% FBS, 1% penicillin/streptomycin (Gibco) at 37° C. in a humidified atmosphere containing 5% CO2 and the culture medium was changed every 2 days.
6-hydroxydopamin (6-OHDA) is a neurotoxin, which leads to apoptosis of catecholaminergic cells. This pharmacological mechanism can be used to test neuron protecting efficiency of aimed drugs. The cells were seeded in 96 well plates at a density of 4×10^4 cells/well, which were pre-coated with collagen. Following 24 hrs of starvation, the medium was changed into 5% serum. The experimental groups were given different treatments and added with 6-OHDA (sigma) until reaching the concentration of 100 uM. The medium without 6-OHDA works as control. The relative number of viable cells was monitored by MTT assay.
MTT (3-(4,5-Dimethylthiazol-2-yl)-2,5-diphenyltetrazolium bromide) was a tetrazolium salt that can be reduced to purple-colored formazan by normal cell. The stock solution of MTT (5 mg/ml) was added into each well to make the medium of 0.5 mg/ml MTT and cells were incubated for 4 h. The supernatant was removed to obtain the MTT metabolic product, formazan, which was then dissolved in 120 ul DMSO (dimethylsulfoxide, sigma) and placed on a shaking table for 5 min until thoroughly dissolved. 100 ul of dissolved-formazan from each well was transferred into another plate to measure the absorbance with 560 nm at background 670 nm.
The dosage used was 100 uM, which caused about 40% apoptosis. […] The empty particles (without aFGF) and the particles entrapping an aFGF were soaked in culture medium for 2 days at 4° C. The supernatant was then collected and diluted at different concentrations for treatment of the 6-OHDA-damaged PC-12 cells.
(Formazan colour is commonly taken as a measure of viable cells.)

The next data set concerns the target T1, trypsin (Bos taurus, UniProt P00760).
T1 construct: purchased Sigma T1426
T1 sequence (P00760 24-246): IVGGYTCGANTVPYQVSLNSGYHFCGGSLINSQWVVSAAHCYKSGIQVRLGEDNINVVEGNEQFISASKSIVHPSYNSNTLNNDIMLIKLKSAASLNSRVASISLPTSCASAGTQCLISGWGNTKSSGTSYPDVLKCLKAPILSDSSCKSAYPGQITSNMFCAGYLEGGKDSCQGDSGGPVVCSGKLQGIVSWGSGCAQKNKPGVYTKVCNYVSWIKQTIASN
Put plainly: Proteolytic sensitivity to trypsin digestion, Western blot. Type of data set: in vitro ADME. Conditions: after 5 min of digestion, aFGF:trypsin 1:400, PBS, 37° C. The protocol: In order to test how well of the particles can protect aFGF from an enzyme digestion, we mixed aFGF or the particles entrapping aFGF with a protein enzyme, trypsin. The aFGF and trypsin (Sigma, T1426) was mixed with the ratio of 1:400 in PBS bathed at 37° C. Ten microliters of product was taken out at various time intervals to mix with 10 ul of 2×SDS-sample buffer. The solution was then immediately being boiled for 5 mins to cease enzyme reaction.
As shown in the results, the binding of aFGF to heparin increased the stability to overcome the challenge in vivo. To simulate physiological environment, the experiment was held at 37° C. The intact aFGF and aFGF in the particles of the invention were digested by Trypsin respectively, and aFGF antibody was used to detect the remaining aFGF. With the increase in time of enzyme digestion, the amount of aFGF decreases.

Consider `NCCc1cc(O)c(O)cc1O` [6-OHDA, 6-hydroxydopamin, reference compound], for which the apoptosis entry with PC-12 cells (100 uM 6-OHDA, PC-12 cells) is listed as “about 40%”. Besides, the EC50 in the data set with PC-12 cells (Rattus norvegicus, PC-12, read-out: ED50 (neurotoxicity)) is about 125 µM.

Turning to acid fibroblast growth factor [aFGF], the survival rate entry is listed as “more than 72.63%” in the data set with PC-12 cells (10 pg/ml aFGF, 100 uM 6-OHDA, PC-12 cells) and 88.41% in the data set on PC-12 cells (10 ng/ml aFGF, 100 uM 6-OHDA, PC-12 cells). The “effect on PC-12 death” value in the data set on PC-12 cells (6-OHDA-treated PC-12 cells, FIG. 5) was “significantly blocks PC-12 death”. Moreover, the “remaining aFGF band after trypsin digestion” value with trypsin is listed as “almost disappeared”.

The values are drawn from US20120148677A1, “CONTROLLED RELEASE PARTICLES CONTAINING ACID FIBROBLAST GROWTH FACTOR” (Taipei Veterans General Hospital, priority 2010, published 2012).
